# Measured values from ChEMBL document CHEMBL4308841, “Synthesis, in vitro antiproliferative activity, and kinase inhibitory effects of pyrazole-containing diarylureas and diarylamides” (Eur J Med Chem, 2018).
# Experiments:
# ACHN [1] = assay: Growth inhibition of human ACHN cells assessed as cell growth at 0.1 uM incubated for 48 hrs by sulforhodamine B assay relative to control; assay type: functional; conditions: read-out: Activity
# CAKI-1 [2] = assay: Growth inhibition of human Caki1 cells assessed as cell growth at 0.01 uM incubated for 48 hrs by sulforhodamine B assay relative to control; assay type: functional; conditions: CAKI-1, 48 h, read-out: Activity
# ACHN [3] = assay: Growth inhibition of human ACHN cells assessed as cell growth at 100 uM incubated for 48 hrs by sulforhodamine B assay relative to control; assay type: functional; conditions: read-out: Activity
# LOX IMVI = assay: Growth inhibition of human LOXIMVI cells assessed as cell growth at 0.01 uM incubated for 48 hrs by sulforhodamine B assay relative to control; assay type: functional; conditions: read-out: Activity
# SN12C = assay: Growth inhibition of human SN12C cells assessed as cell growth at 0.01 uM incubated for 48 hrs by sulforhodamine B assay relative to control; assay type: functional; conditions: read-out: Activity
# OVCAR-8 = assay: Growth inhibition of human OVCAR8 cells incubated for 48 hrs by sulforhodamine B assay; assay type: functional, cell-based; conditions: OVCAR-8, 48 h
# IGROV-1 = assay: Growth inhibition of human IGROV1 cells assessed as cell growth at 0.1 uM incubated for 48 hrs by sulforhodamine B assay relative to control; assay type: functional; conditions: IGROV-1, 48 h, read-out: Activity
# MCF7 [4] = assay: Growth inhibition of human MCF7 cells assessed as cell growth at 1 uM incubated for 48 hrs by sulforhodamine B assay relative to control; assay type: functional; conditions: MCF7, 48 h, read-out: Activity
# NCI-H23 [5] = assay: Growth inhibition of human NCI-H23 cells assessed as cell growth at 0.01 uM incubated for 48 hrs by sulforhodamine B assay relative to control; assay type: functional; conditions: NCI-H23, 48 h, read-out: Activity
# 786-0 = assay: Growth inhibition of human 786-0 cells assessed as cell growth at 0.01 uM incubated for 48 hrs by sulforhodamine B assay relative to control; assay type: functional; conditions: 786-0, 48 h, read-out: Activity
# MCF7 [6] = assay: Growth inhibition of human MCF7 cells assessed as cell growth at 100 uM incubated for 48 hrs by sulforhodamine B assay relative to control; assay type: functional; conditions: MCF7, 48 h, read-out: Activity
# CCRF-CEM [7] = assay: Growth inhibition of human CCRF-CEM cells assessed as cell growth at 1 uM incubated for 48 hrs by sulforhodamine B assay relative to control; assay type: functional; conditions: read-out: Activity
# MCF7 [8] = assay: Growth inhibition of human MCF7 cells assessed as cell growth at 0.1 uM incubated for 48 hrs by sulforhodamine B assay relative to control; assay type: functional; conditions: MCF7, 48 h, read-out: Activity
# PC-3 = assay: Growth inhibition of human PC3 cells assessed as cell growth at 1 uM incubated for 48 hrs by sulforhodamine B assay relative to control; assay type: functional; conditions: PC-3, 48 h, read-out: Activity
# SR = assay: Growth inhibition of human SR cells assessed as cell growth at 1 uM incubated for 48 hrs by sulforhodamine B assay relative to control; assay type: functional; conditions: read-out: Activity
# SK-OV-3 = assay: Growth inhibition of human SKOV3 cells assessed as cell growth at 0.01 uM incubated for 48 hrs by sulforhodamine B assay relative to control; assay type: functional; conditions: SK-OV-3, 48 h, read-out: Activity
# Hs-578T [9] = assay: Growth inhibition of human Hs578T cells assessed as cell growth at 0.1 uM incubated for 48 hrs by sulforhodamine B assay relative to control; assay type: functional; conditions: read-out: Activity
# NCI-H23 [10] = assay: Growth inhibition of human NCI-H23 cells assessed as cell growth at 100 uM incubated for 48 hrs by sulforhodamine B assay relative to control; assay type: functional; conditions: NCI-H23, 48 h, read-out: Activity
# NCI-H322M = assay: Growth inhibition of human NCI-H322M cells assessed as cell growth at 0.1 uM incubated for 48 hrs by sulforhodamine B assay relative to control; assay type: functional; conditions: read-out: Activity
# SF-268 = assay: Growth inhibition of human SF268 cells assessed as cell growth at 0.01 uM incubated for 48 hrs by sulforhodamine B assay relative to control; assay type: functional; conditions: SF-268, 48 h, read-out: Activity
# CCRF-CEM [11] = assay: Growth inhibition of human CCRF-CEM cells incubated for 48 hrs by sulforhodamine B assay; assay type: functional, cell-based
# DU-145 = assay: Growth inhibition of human DU145 cells assessed as cell growth at 0.01 uM incubated for 48 hrs by sulforhodamine B assay relative to control; assay type: functional; conditions: DU-145, 48 h, read-out: Activity
# A498 = assay: Growth inhibition of human A498 cells assessed as cell growth at 100 uM incubated for 48 hrs by sulforhodamine B assay relative to control; assay type: functional; conditions: A498, 48 h, read-out: Activity
# M14 = assay: Growth inhibition of human M14 cells assessed as cell growth at 0.01 uM incubated for 48 hrs by sulforhodamine B assay relative to control; assay type: functional; conditions: M14, 48 h, read-out: Activity
# Hs-578T [12] = assay: Growth inhibition of human Hs578T cells incubated for 48 hrs by sulforhodamine B assay; assay type: functional, cell-based
# MDA-MB-468 = assay: Growth inhibition of human MDA-MB-468 cells assessed as cell growth at 0.1 uM incubated for 48 hrs by sulforhodamine B assay relative to control; assay type: functional; conditions: MDA-MB-468, 48 h, read-out: Activity
# UO-31 = assay: Growth inhibition of human UO31 cells assessed as cell growth at 0.01 uM incubated for 48 hrs by sulforhodamine B assay relative to control; assay type: functional; conditions: UO-31, 48 h, read-out: Activity
# K562 = assay: Growth inhibition of human K562 cells incubated for 48 hrs by sulforhodamine B assay; assay type: functional, cell-based; conditions: K562, 48 h
# SF-295 = assay: Growth inhibition of human SF295 cells assessed as cell growth at 1 uM incubated for 48 hrs by sulforhodamine B assay relative to control; assay type: functional; conditions: SF-295, 48 h, read-out: Activity
# OVCAR-4 = assay: Growth inhibition of human OVCAR4 cells assessed as cell growth at 0.01 uM incubated for 48 hrs by sulforhodamine B assay relative to control; assay type: functional; conditions: OVCAR-4, 48 h, read-out: Activity
# CAKI-1 [13] = assay: Growth inhibition of human Caki1 cells assessed as cell growth at 0.1 uM incubated for 48 hrs by sulforhodamine B assay relative to control; assay type: functional; conditions: CAKI-1, 48 h, read-out: Activity
# CCRF-CEM [14] = assay: Growth inhibition of human CCRF-CEM cells assessed as cell growth at 0.1 uM incubated for 48 hrs by sulforhodamine B assay relative to control; assay type: functional; conditions: read-out: Activity
# NCI-H226 = assay: Growth inhibition of human NCI-H226 cells assessed as cell growth at 0.01 uM incubated for 48 hrs by sulforhodamine B assay relative to control; assay type: functional; conditions: NCI-H226, 48 h, read-out: Activity
# [15] = read-out: LC50 (the source's name)
# [16] = read-out: pLC50 (the source's name) (converted)
compound,measurement,setting,value
COc1cc(Cl)cc(-c2nn(-c3cccc(NC(=O)c4ccc(N5CCOCC5)c(C(F)(F)F)c4)c3)cc2-c2ccncc2)c1,growth at 0.1 µM,ACHN [1],91%
same,growth at 0.01 µM,CAKI-1 [2],98%
same,growth at 100 µM,ACHN [3],28%
same,growth at 0.01 µM,LOX IMVI,97%
same,growth at 0.01 µM,SN12C,97%
same,GI50,OVCAR-8; read-out: GI50,6.33 µM
same,CC50,OVCAR-8; [15],> 100 µM
same,TGI,OVCAR-8; read-out: TGI,> 100 µM
same,GI50,OVCAR-8; read-out: pGI50 (converted),6.31 µM
same,CC50,OVCAR-8; [16],> 100 µM
same,TGI,OVCAR-8; read-out: pTGI (converted),> 100 µM
same,growth at 0.1 µM,IGROV-1,100%
same,growth at 1 µM,MCF7 [4],90%
same,growth at 0.01 µM,NCI-H23 [5],92%
same,growth at 0.01 µM,786-0,96%
same,growth at 100 µM,MCF7 [6],23%
same,growth at 1 µM,CCRF-CEM [7],56%
same,growth at 0.1 µM,MCF7 [8],92%
same,growth at 1 µM,PC-3,73%
same,growth at 1 µM,SR,52%
same,growth at 0.01 µM,SK-OV-3,102%
same,growth at 0.1 µM,Hs-578T [9],92%
same,growth at 100 µM,NCI-H23 [10],38%
same,growth at 0.1 µM,NCI-H322M,94%
same,growth at 0.01 µM,SF-268,95%
same,GI50,CCRF-CEM [11]; read-out: GI50,3.58 µM
same,CC50,CCRF-CEM [11]; [15],> 100 µM
same,TGI,CCRF-CEM [11]; read-out: TGI,> 100 µM
same,GI50,CCRF-CEM [11]; read-out: pGI50 (converted),3.89 µM
same,CC50,CCRF-CEM [11]; [16],> 100 µM
same,TGI,CCRF-CEM [11]; read-out: pTGI (converted),> 100 µM
same,growth at 0.01 µM,DU-145,108%
same,growth at 100 µM,A498,24%
same,growth at 0.01 µM,M14,97%
same,GI50,Hs-578T [12]; read-out: GI50,5.48 µM
same,CC50,Hs-578T [12]; [15],> 100 µM
same,TGI,Hs-578T [12]; read-out: TGI,> 100 µM
same,GI50,Hs-578T [12]; read-out: pGI50 (converted),6.46 µM
same,CC50,Hs-578T [12]; [16],> 100 µM
same,TGI,Hs-578T [12]; read-out: pTGI (converted),> 100 µM
same,growth at 0.1 µM,MDA-MB-468,92%
same,growth at 0.01 µM,UO-31,92%
same,GI50,K562; read-out: GI50,3.1 µM
same,LC50,K562; read-out: LC50,> 100 µM
same,TGI,K562; read-out: TGI,> 100 µM
same,GI50,K562; read-out: pGI50 (converted),3.09 µM
same,LC50,K562; read-out: pLC50 (converted),> 100 µM
same,TGI,K562; read-out: pTGI (converted),> 100 µM
same,growth at 1 µM,SF-295,73%
same,growth at 0.01 µM,OVCAR-4,99%
same,growth at 0.1 µM,CAKI-1 [13],100%
same,growth at 0.1 µM,CCRF-CEM [14],101%
same,growth at 0.01 µM,NCI-H226,94%
COc1cc(Cl)cc(-c2nn(-c3cccc(NC(=O)Nc4ccc(Cl)c(C(F)(F)F)c4)c3)cc2-c2ccncc2)c1,growth at 0.1 µM,ACHN [1],57%
same,growth at 0.01 µM,CAKI-1 [2],98%
same,growth at 100 µM,ACHN [3],-31%
same,growth at 0.01 µM,LOX IMVI,98%
same,growth at 0.01 µM,SN12C,98%
same,GI50,OVCAR-8; read-out: GI50,0.739 µM
same,CC50,OVCAR-8; [15],> 100 µM
same,TGI,OVCAR-8; read-out: TGI,59.3 µM
same,GI50,OVCAR-8; read-out: pGI50 (converted),0.741 µM
same,CC50,OVCAR-8; [16],> 100 µM
same,TGI,OVCAR-8; read-out: pTGI (converted),7.08 µM
same,growth at 0.1 µM,IGROV-1,99%
same,growth at 1 µM,MCF7 [4],50%
same,growth at 0.01 µM,NCI-H23 [5],90%
same,growth at 0.01 µM,786-0,96%
same,growth at 100 µM,MCF7 [6],-8%
same,growth at 1 µM,CCRF-CEM [7],37%
same,growth at 0.1 µM,MCF7 [8],93%
same,growth at 1 µM,PC-3,14%
same,growth at 1 µM,SR,53%
same,growth at 0.01 µM,SK-OV-3,104%
same,growth at 0.1 µM,Hs-578T [9],90%
same,growth at 100 µM,NCI-H23 [10],-50%
same,growth at 0.1 µM,NCI-H322M,98%
same,growth at 0.01 µM,SF-268,95%
same,GI50,CCRF-CEM [11]; read-out: GI50,0.613 µM
same,CC50,CCRF-CEM [11]; [15],> 100 µM
same,TGI,CCRF-CEM [11]; read-out: TGI,35.5 µM
same,CC50,CCRF-CEM [11]; [16],> 100 µM
same,growth at 0.01 µM,DU-145,103%
same,growth at 100 µM,A498,-70%
same,growth at 0.01 µM,M14,97%
same,GI50,Hs-578T [12]; read-out: GI50,4.29 µM
same,CC50,Hs-578T [12]; [15],> 100 µM
same,TGI,Hs-578T [12]; read-out: TGI,67.7 µM
same,GI50,Hs-578T [12]; read-out: pGI50 (converted),4.27 µM
same,CC50,Hs-578T [12]; [16],> 100 µM
same,TGI,Hs-578T [12]; read-out: pTGI (converted),67.6 µM
same,growth at 0.1 µM,MDA-MB-468,91%
same,growth at 0.01 µM,UO-31,91%
same,GI50,K562; read-out: GI50,0.537 µM
same,LC50,K562; read-out: LC50,9.55 µM
same,TGI,K562; read-out: TGI,10.1 µM
same,GI50,K562; read-out: pGI50 (converted),5.37 µM
same,LC50,K562; read-out: pLC50 (converted),95.5 µM
same,TGI,K562; read-out: pTGI (converted),10 µM
same,growth at 1 µM,SF-295,31%
same,growth at 0.01 µM,OVCAR-4,99%
same,growth at 0.1 µM,CAKI-1 [13],99%
same,growth at 0.1 µM,CCRF-CEM [14],97%
same,growth at 0.01 µM,NCI-H226,97%
